{"source": "patent US20240255521A1", "about": "“Cilia Protein as Biomarkers and Methods of Use” (The Medical College of Wisconsin, Inc., priority 2021, published 2024)", "key": {"ARL13b on SS RBCs": {"test_system": "ARL13b on SS RBCs", "test": "ARL13b bound to SS RBCs before and after flow chamber interaction with apocynin-pretreated brain ECs (flow cytometry)", "type": "cell-based, human", "details": "ECs treated with 10 μM apocynin", "description": "HBMVECs were cultured until they reached confluence on clear glass slides precoated with 2% gelatin. Slides coated with brain ECs were washed, then fit into a variable height flow chamber and tested for their ability to support adhesion of RBCs. The flow chamber was mounted on the stage of an inverted phase contrast microscope (Diaphot, Nikon Inc.) connected to a thermoplate (Tokai Hit Co., Ltd.) set at 37° C. Fluorescence-labeled RBCs suspended at 0.2% (v/v) in PBS with Ca^2+ and Mg^2+ were infused into the flow chamber and allowed to adhere to brain ECs for 10 minutes without flow. Before exposure to flow, a minimum of 3 fields at each of 7 different locations along a line oriented to future flow were examined, and the total number of fluorescent cells was counted. Fluid flow (PBS with Ca^2+ and Mg^2+) with a calibrated syringe pump was then started for a period of 15 minutes. Effluent was collected and tested by flow cytometry for cilia shedding from brain ECs by RBC contact. After exposure to flow, the fields were examined, and the number of fluorescent adherent RBCs to brain ECs was counted. The fraction of adherent cells was presented as number of cells attached per field after exposure to flow/total number of cells present per field before flow. […] To quantify total ROS, assay kit was used as per the manufacturer's instruction (Thermo Fisher Scientific, catalog 88-5930-74). […]"}, "[1]": {"test_system": "Human brain microvascular ECs", "test": "ROS generation in brain ECs exposed to sickle RBCs (CM-H2-DCFDA, flow cytometry)", "type": "cell-based", "details": "brain ECs pretreated with apocynin 10 μM for 1 hour, then exposed to SS RBCs for 10 minutes; P<0.0001", "description": "Single-cell suspensions were washed 3 times with FACS buffer (1×PBS with 5% FBS and 0.1% NaN3) at 300 g for 5 minutes and were subsequently incubated with Live/Dead fixable yellow dead cell stain as per manufacturer's protocol, to exclude any dead cells, wherever applicable. Then, cells were fixed and permeabilized using Cytofix/Cytoperm buffer (BD, catalog 554722) or transcription factor buffer set (BD, catalog 562574) and stained for the following proteins: ARL13b, IFT88, Inversin, Dynein, γ-tubulin, Alk1, KLF4, HO-1, NRF2, and bACTIN. Suitable secondary reagents were used to detect the respective proteins. Primary antibodies were diluted 1:50, and secondary antibodies were diluted 1:500. BD perm wash buffer (catalog 554723) was used for antibody dilutions and washing. Primary antibodies were incubated for 45 minutes and secondaries for 30 minutes at 4° C. Suitable secondary antibody controls were included. To quantify total ROS, assay kit was used as per the manufacturer's instruction (Thermo Fisher Scientific, catalog 88-5930-74). After the completion of staining, cells were resuspended in FACS buffer. Stained cells were run on a flow cytometer (BD LSRFortessa). Sample acquisition was done using FACSDiva software (BD) with subsequent analysis on FlowJo software. […]"}, "HBMVECs": {"test_system": "HBMVECs", "test": "PMA-induced oxidative stress in HBMVECs with or without NOX inhibitor; ROS, HO-1 and cilia proteins by flow cytometry (MFI)", "type": "cell-based, human", "description": "Primary HBMVECs (Cell Systems Corporation catalog ACBRI 376) and HUVECs (Glyco Tech) were maintained at 37° C. in a 5% CO2 incubator in endothelial cell complete medium (Promocell, catalog C22010). As per vendor's description, cells were isolated from the cortex region of the brain from a pediatric donor. The cells were isolated without using antibody labeling to preserve the cells' natural properties for enhanced biological relevance. LL-CPK1 (CL101.1TM) porcine renal epithelial cells from proximal tubule were obtained from ATCC. All cell culture wells were seeded equally, and wells were randomized to control versus experimental conditions with duplicates or triplicates per condition. All experiments were performed between passages 4 and 6. Cells that had reached approximately 90% confluence were used in the shear stress experiment. For ROS quantification experiments, cells were treated with PMA (Sigma, catalog P8139-5MG) at a concentration of 50 ng/mL for 1 hour. To inhibit ROS production in respective experimental groups, cells were treated with 20 μM NOX inhibitor VAS 2870 (Sigma, catalog SML0273-5MG) 1 hour prior to PMA treatment.\nSingle-cell suspensions were washed 3 times with FACS buffer (1×PBS with 5% FBS and 0.1% NaN3) at 300 g for 5 minutes and were subsequently incubated with Live/Dead fixable yellow dead cell stain as per manufacturer's protocol, to exclude any dead cells, wherever applicable. Then, cells were fixed and permeabilized using Cytofix/Cytoperm buffer (BD, catalog 554722) or transcription factor buffer set (BD, catalog 562574) and stained for the following proteins: ARL13b, IFT88, Inversin, Dynein, γ-tubulin, Alk1, KLF4, HO-1, NRF2, and bACTIN. Suitable secondary reagents were used to detect the respective proteins. Primary antibodies were diluted 1:50, and secondary antibodies were diluted 1:500. BD perm wash buffer (catalog 554723) was used for antibody dilutions and washing. Primary antibodies were incubated for 45 minutes and secondaries for 30 minutes at 4° C. Suitable secondary antibody controls were included. To quantify total ROS, assay kit was used as per the manufacturer's instruction (Thermo Fisher Scientific, catalog 88-5930-74). After the completion of staining, cells were resuspended in FACS buffer. Stained cells were run on a flow cytometer (BD LSRFortessa). Sample acquisition was done using FACSDiva software (BD) with subsequent analysis on FlowJo software. To determine the presence of the ciliary protein ARL13b on human RBCs, unlabeled RBCs prior to infusion into the variable height flow chamber, and effluent containing RBCs collected postflow and RBCs postinteraction with brain ECs, were labeled with FITC-conjugated Arl13b antibody for 30 minutes on ice. RBCs were then washed and tested by flow cytometric analysis as previously described (49). To determine whether ROS generation in brain ECs can be increased by sickle RBCs and contributes to deciliation, slides coated with brain ECs were sham-treated or pretreated with the NOX inhibitor apocynin at 10 μM for 1 hour at 37° C., washed, and fitted into the flow chamber. Treated brain ECs were then exposed to unlabeled sickle RBCs for 10 minutes. Sickle RBCs were lysed with RBC lysis buffer and brain ECs scraped from the glass slide for testing for ROS levels using CM-H2-DCFDA (Invitrogen) as described previously in detail (50). One hundred thousand events per sample were acquired and tested by flow cytometric analysis. In separate experiments, and as described above, unlabeled sickle RBCs were tested by flow cytometry for ARL13b ciliary protein binding prior to infusion into the chamber (baseline levels) and postflow and once sickle RBCs interacted with brain ECs treated with 10 μM apocynin."}, "[2]": {"details": "20 μM VAS2870 1 hour prior to PMA 50 ng/mL"}, "[3]": {"details": "PMA 50 ng/mL for 1 hour vs untreated"}}, "note": "Entries after “also recorded” stand apart in the source; their conditions may differ."}
{"smiles": "COc1cc(C(C)=O)ccc1O", "note": "[apocynin]", "values": [{"measurement": "cilia protein expression on sickle RBCs exposed to apocynin-treated brain ECs (in words)", "setting": "ARL13b on SS RBCs", "result": "decreased cilia protein expression"}, {"measurement": "ARL13b expression on SS RBCs after exposure to apocynin-treated brain ECs", "setting": "ARL13b on SS RBCs; before exposure SS RBCs showed approximately 35% ARL13b, P<0.05, n=6", "result": "approximately 20%"}, {"measurement": "ROS generation in ECs", "setting": "[1]", "result": "reduced ROS generation in ECs to baseline levels"}]}
{"smiles": "c1ccc(Cn2nnc3c(Sc4nc5ccccc5o4)ncnc32)cc1", "note": "[VAS2870]", "values": [{"measurement": "HO-1 levels", "setting": "HBMVECs; [2]", "result": "restored to control levels"}, {"measurement": "cilia-associated proteins NRF2, IFT88 and γ-tubulin levels", "setting": "HBMVECs; [2]", "result": "rescued; also recorded: restored to baseline; also recorded: returned to baseline"}, {"measurement": "total ROS", "setting": "HBMVECs; 20 μM VAS2870 1 hour prior to PMA 50 ng/mL, vs PMA alone", "result": "partially attenuated; also recorded: quenched ROS production"}]}
{"smiles": "CCCCCCCCCCCCCC(=O)O[C@@H]1[C@@H](C)[C@@]2(O)[C@@H](C=C(CO)C[C@]3(O)C(=O)C(C)=C[C@@H]23)[C@@H]2C(C)(C)[C@]12OC(C)=O", "note": "[PMA]", "values": [{"measurement": "HO-1 levels", "setting": "HBMVECs; [3]", "result": "lower"}, {"measurement": "cilia-associated proteins NRF2, IFT88 and γ-tubulin levels", "setting": "HBMVECs; [3]", "result": "downregulated; also recorded: reduced; also recorded: decreased"}, {"measurement": "total ROS", "setting": "HBMVECs; [3]", "result": "induced ROS; also recorded: enhanced total ROS"}]}
